Measured values published in patent US20020147136A1, “Compounds for targeting endothelial cells, compositions containing the same and methods for their use” (priority 2000, published 2002).
Blank lines part the entries; values can stand above or below the molecule they belong to. Residues, ends and D or L forms follow the SMILES beside them.

Key:
[1] = system: HAEC; assay: Inhibition of TKPPR-bubble binding to HAEC in static culture by competing agents; assay type: cell-based, human; details: for ability to block binding of BRU-114 microbubbles to HAEC / Bubbles Bound % of control binding / ability to inhibit binding of BRU-114 microbubbles to HAEC / Bubbles Bound (average of duplicate): 2% BRU-114 bubbles; for ability to block binding of BRU-114 microbubbles to HAEC: up to 200 microM; for half-maximal inhibition of bubble binding / IC50 / Bubbles Bound: 5% TKPPR bubbles; for IC50: read-out: half-maximal inhibition of bubble binding; for inhibition of bubble binding to HAEC: Example 12
Description: Vials of the compositions of example 5 and of example 6 may be reconstituted with 5 mL of sterile saline, injected using a 20-guage 1.5 inch needle. Bubbles may be then formed within the vials by shaking by hand vigorously for 30 seconds. 1 to 5 mL of the bubble formulation may be removed from each vial and diluted with 3 volumes of D-PBS (without calcium or magnesium) within 1 hour of use.
Chamber slides containing confluent HAEC may be drained of culture medium, which was immediately replaced with one of the final bubble solutions prepared above. The wells may be slightly overfilled such that the liquid meniscus protrudes slightly above the plastic well-forming scaffold of the slide. Bubble solutions may be only added to alternate wells to minimize liquid cross-talk. The wells may be sealed with a piece of Parafilm and the slide incubated 20 minutes, inverted (according to Klibanov A. L., Advanced drug Delivery Reviews, 37, 1999, 139-157) to allow the bubbles to rise and make contact with the cells, after which the solutions may be poured off. Weakly associated bubbles may be removed by washing each well twice with 0.5 mL of D-PBS, swirling gently each time before pouring off. Additional D-PBS (0.5 mL) may be added to wells after the washes to keep the cells submerged until microscopic evaluation.
Composition I of Example 5 was repeated exactly as described except that 0.5 mg DPPE-GTKPPR was added (instead of 2.5 mg) yielding compositions with 1% DPPE-GTKPPR. Vials of this composition as well as that of composition I ofExample 5 (5% DPPE-GTKPPR) were reconstituted with 5 mL of sterile saline, injected using a 20-guage 1.5 inch needle. Bubbles were then formed within the vials by shaking by hand vigorously for 30 seconds. 1 to 5 mL of the bubble formulation was removed from each vial and diluted with 3 volumes of D-PBS (without calcium or magnesium) within 1 hour of use.
Chamber slides containing confluent HAEC were drained of culture medium, which was immediately replaced with one of the final bubble solutions prepared above. The wells were slightly overfilled such that the liquid meniscus protruded slightly above the plastic well-forming scaffold of the slide. Bubble solutions were only added to alternate wells to minimize liquid cross-talk. The wells were sealed with a piece of Parafilm and the slide was incubated 20 minutes, inverted to allow the bubbles to rise and make contact with the cells, after which the solutions were poured off. Weakly associated bubbles were removed by washing each well twice with 0.5 mL of D-PBS, swirling gently each time pouring off. Additional D-PBS (0.5 mL) was added to wells after the washes to keep the cells submerged until microscopic evaluation.
Assays were performed as described for Example 7 using microbubble compositions containing 2% BRU-114 (Composition I of Example 5) as a % of total phospholipid in the composition.
Compositions were reconstituted and assays were performed as described in Example 7 using microbubble compositions containing 1% BRU-114 (Composition I of Example 5) as a % of total phospholipid in the composition.
Assays were performed as described for Example 7 using microbubble compositions containing 2% BRU-114 (as a % of total phospholipid in the composition).

[2] = system: Neuropilin-1/Fc; assay: Fluorescence polarization binding to NP-1/Fc
Description: The ability of various compositions comprising TKPPR monomers or multimers to bind to NP-1/Fc and KDR-Fc was evaluated using FP. The binding studies of various Oregon Green (OG)-labeled compounds comprising TKPPR monomers or multimers and related compounds with Neuropilin-1/Fc, and KDR-Fc (both from R&D Systems), were carried out at 37° C. in D-PBS buffer (pH 7.4). FP values (mP) for each substrate was measured by titrating the ligand (5-20 nM) with receptor protein using a Jolley Research and Consulting FPM-1 fluorescence Polarization analyzer. In each of these experiments the observed polarization values were plotted against receptor concentration. The mP values for 100% binding of tracer labeled ligand to receptor protein was calculated using the software provided by the vendor.

Molecule: CC(O)C(NC(=O)C(N)CS)C(=O)NC(CCCCN)C(=O)N1CCCC1C(=O)N1CCCC1C(=O)NC(CCCNC(=N)N)C(=O)NC(CS)C(=O)O (stereo not drawn) [BRU-305] (H-CTKPPRC-OH; configuration not given here)
ability to block binding of BRU-114 microbubbles to HAEC [1]: no ability to block
Bubbles Bound % of control binding ([1]; competitor 50 microM): 97%
Bubbles Bound % of control binding ([1]; competitor 100 microM): 78%
Bubbles Bound % of control binding ([1]; competitor 200 microM): 88%

ability to block binding of BRU-114 microbubbles to HAEC [1]: no ability to block
Bubbles Bound % of control binding ([1]; competitor 50 microM): 97%
Bubbles Bound % of control binding ([1]; competitor 100 microM): 71%
Bubbles Bound % of control binding ([1]; competitor 200 microM): 99%
Molecule: CC(O)C1/N=C(/O)C(N)CSSCC(C(=O)O)/N=C(/O)C(CCCNC(=N)N)/N=C(\O)C2CCCN2C(=O)C2CCCN2C(=O)C(CCCCN)/N=C\1O (stereo not drawn) [BRU-306]

half-maximal inhibition of bubble binding [1]: about 450 ng/mL
IC50 [1]: ~1400 pM
inhibition of bubble binding to HAEC [1]: inhibit potently
Bubbles Bound ([1]; KDR/Fc added 125 ng/ml): 1030 ± 12
Bubbles Bound ([1]; KDR/Fc added 250 ng/ml): 786 ± 76
Bubbles Bound ([1]; KDR/Fc added 500 ng/ml): 342 ± 78
Bubbles Bound ([1]; KDR/Fc added 1000 ng/ml): 75 ± 5
Bubbles Bound ([1]; KDR/Fc added 2500 ng/ml): 84 ± 3
Molecule: KDR/Fc: soluble human KDR/Fc chimera (R&D Sytems Inc.)

Molecule: TKPPR-K(RPPKT)-K[K(RPPKT)TKPPR]-G-Z-OG [BRU-346]
binding characteristics compared to BRU-326 [2]: did not exhibit the same binding characteristics
binding to NP-1/Fc by FP ([2]; Oregon Green-labeled ligand): negative

Molecule: Thr-Lys-Pro-Pro-Arg-Lys(Arg-Pro-Pro-Lys-Thr)-Gly-TTDA-OG [BRU-337]
binding characteristics compared to BRU-326 [2]: did not exhibit the same binding characteristics

ability to inhibit binding of BRU-114 microbubbles to HAEC [1]: potently blocked
half-maximal inhibition of bubble binding [1]: about 12.5 ng/mL
IC50 [1]: ~300 pM
inhibition of bubble binding to HAEC [1]: potently may inhibit
Bubbles Bound ([1]; VEGF added 6.25 ng/ml): 1184 ± 172
Bubbles Bound ([1]; VEGF added 12.5 ng/ml): 599 ± 6
Bubbles Bound ([1]; VEGF added 25 ng/ml): 342 ± 22
Bubbles Bound ([1]; VEGF added 50 ng/ml): 226 ± 39
Bubbles Bound ([1]; VEGF added 75 ng/ml): 190 ± 45
Bubbles Bound (average of duplicate) ([1]; competitor 25 ng/ml): 144
Bubbles Bound (average of duplicate) ([1]; competitor 100 ng/ml): 94
Bubbles Bound (average of duplicate) ([1]; competitor 200 ng/ml): 70
Molecule: VEGF165: vascular endothelial growth factor isoform containing 165 amino acids

ability to inhibit binding of BRU-114 microbubbles to HAEC [1]: little if any ability to inhibit
Bubbles Bound (average of duplicate) ([1]; competitor 100 ng/ml): 878
Bubbles Bound (average of duplicate) ([1]; competitor 200 ng/ml): 849
Bubbles Bound (average of duplicate) ([1]; competitor 400 ng/ml): 778
effect on BRU-326 binding to NP-1 ([2]; at up to 250nM): no effect
B1: VEGF121: VEGF isoform of 121 amino acids, lacks the heparin-binding domain (protein)
chain: APMAEGGGQNHHEVVKFMDVYQRSYCHPIETLVDIFQEYPDEIEYIFKPSCVPLMRCGGCCNDEGLECVPTEESNITMQIMRIKPHQGQHIGEMSFLQHNKCECRPKKDRARQEKCDKPRR
